Laboratory results taken from patent US10588315B2, “Fungicidal compositions” (Syngenta Participations AG, priority 2012, dated 2020).
Read-outs that look alike come from different tables or passages of the source.

Test system: Mycosphaerella graminicola (Septoria tritici)
Assay: Mycosphaerella graminicola (Septoria tritici) / liquid culture
Format: cell-based
Details: Zymoseptoria tritici, read-out: observed % activity; for inhibition at 0.0031 ppm: 1.001 0.0031 ppm; for inhibition at 0.0016 ppm: 1.001 0.0016 ppm; for inhibition at 0.0008 ppm: 1.001 0.0008 ppm
Description: Mycelia fragments or conidia suspensions of a fungus, prepared either freshly from liquid cultures of the fungus or from cryogenic storage, were directly mixed into nutrient broth. DMSO solutions of the test compound (max. 10 mg/ml) was diluted with 0.025% Tween20 by factor 50 and 10 μl of this solution was pipetted into a microtiter plate (96-well format). The nutrient broth containing the fungal spores/mycelia fragments was then added to give an end concentration of the tested compound. The test plates were incubated in the dark at 24° C. and 96% rh. The inhibition of fungal growth was determined photometrically and visually after 2-4 days, depending on the pathosystem, and percent antifungal activity relative to the untreated check was calculated.
Conidia of the fungus from cryogenic storage were directly mixed into nutrient broth (PDB potato dextrose broth). After placing a (DMSO) solution of test compound into a microtiter plate (96-well format), the nutrient broth containing the fungal spores was added.

For `CON(C(=O)c1cn(C)nc1C(F)F)C(C)Cc1c(Cl)cc(Cl)cc1Cl` (centres unmarked) [Compound 1.001, 3-(difluoromethyl)-N-methoxy-1-methyl-N-[1-methyl-2-(2,4,6-trichlorophenyl)ethyl]pyrazole-4-carboxamide], the inhibition at 0.0004 ppm (1.001 0.0004 ppm) was 9%, the inhibition at 0.0031 ppm was 88% and the inhibition at 0.0016 ppm (B1.5) was 52%. The inhibition at 0.0016 ppm (B3.5) was 42%, the inhibition at 0.0031 ppm (B3.5) was 83% and the inhibition at 0.0008 ppm (B5.6) was 27%. The inhibition at 0.0016 ppm (B5.6) was 45%, the inhibition at 0.0031 ppm (B5.6) was 82% and the inhibition at 0.0008 ppm (B6.4) was 11%. The inhibition at 0.0016 ppm (B6.4) was 53% and the inhibition at 0.0031 ppm (B6.4) was 89%.
